Format in all cases: functional, cell-based
For assay [1], the system named is HepG2. As to the kind of experiment: Cytotoxicity against human HepG2 cells after 48 hrs by MTT assay. Conditions: HepG2, 48 h. (Tetrazolium assays rely on reduction of a dye to a coloured formazan, in cell work by metabolically active cells.)
Assay [2] deals with MCF7. As to the kind of experiment: Cytotoxicity against human MCF7 cells after 48 hrs by MTT assay. Conditions: MCF7, 48 h.
Assay [3] concerns A549. The assay can be described thus: Cytotoxicity against human A549 cells after 48 hrs by MTT assay.

As a reminder, the IC50 is the concentration that inhibits the measured activity by half. Compound `CC(C)=CCc1c(O)c(CC=C(C)C)c2oc3cc(O)ccc3c(=O)c2c1O` yielded an IC50 in assay [1] of 18.7 µM.
Compound `O=C1C(=O)c2cccnc2-c2ncccc21` had a half-inhibitory concentration (IC50) in assay [2] of 0.58 µM. This lies in the sub-micromolar range.
Turning to `CC(C)c1cc2c(cc1O)[C@@]1(C)CCC[C@](C)(CO)[C@@H]1CC2`, in assay [3] (Homo sapiens, A549, 48 h), the IC50 worked out at 14 µM.
In turn, `O=c1c2cc(O)ccc2oc2cc(O)cc(O)c12` yielded a concentration for half-maximal inhibition (IC50) in assay [1] of 18.3 µM. This lies in the double-digit micromolar range.
In the case of `O=c1c2ccccc2oc2cc(O)cc(O)c12`, half-maximal inhibition in assay [1] (IC50) was put at 19.5 µM. The IC50 values of the last two compounds are within 1.5-fold of each other.
Consider `O=C(/C=C/c1cc2c([nH]c3ccccc32)c(-c2ccc(C(F)(F)F)cc2)n1)c1ccco1`, for which, in assay [3] (Homo sapiens, A549, 48 h), the IC50 came out at 2.57 µM.
In the case of `COc1cc(-c2nc(/C=C/C(=O)c3ccc(N)cc3)cc3c2[nH]c2ccccc23)cc(OC)c1OC`, the 50% inhibitory concentration (IC50) in assay [2] was 14.6 µM; in assay [3] (Homo sapiens, A549, 48 h), 11.8 µM.
With `CC1=CC2C(=O)c3nccc(N(C)C)c3C(=O)C2N=C1` (centres undefined) [listing 1 of 2 here], the IC50 in assay [3] (Homo sapiens, A549, 48 h) turned out to be 3.29 µM.
In assay [2], `COc1cc(O)c(C(CO)C(O)CO)c2oc3cccc(O)c3c(=O)c12` (centres undefined) gave a half-maximal inhibitory concentration (IC50) of 9.7 µM.
Regarding `C=C[C@@]1(C)C=C2[C@@H](O[C@@H]3O[C@H](C)[C@H](O)[C@H](O)[C@H]3O)C[C@@H]3C(C)(C)[C@H](O[C@@H]4O[C@@H](C)[C@H](O)[C@@H](O)[C@H]4O[C@H]4O[C@H](CO)[C@@H](O)[C@H](O)[C@H]4O)CC[C@@]3(C)[C@@H]2CC1`, half-maximal inhibition in assay [2] (IC50) was put at 5.6 µM.
Still for that read-out and setting: with `C=C[C@@]1(C)C=C2[C@@H](O[C@@H]3O[C@H](C)[C@H](O)[C@H](O)[C@H]3O)C[C@@H]3C(C)(C)[C@H](O[C@@H]4O[C@@H](C)[C@H](O)[C@@H](O)[C@H]4O)CC[C@@]3(C)[C@@H]2CC1` the figure was 10.2 µM.
`CC(C)=CCc1c(O)cc2oc3cccc(O)c3c(=O)c2c1O` displayed a half-inhibitory concentration (IC50) in assay [1] of 1.49 µM. In other words, the single-digit micromolar range.
`Cc1cnc2c(c1)C(=O)C1N=CC=C(C=O)C1C2=O` (centres undefined) came in with an IC50 in assay [3] (Homo sapiens, A549, 48 h) of 0.33 µM.
In assay [2], `COc1cc(O)c2c(c1O)C(=O)C1=C(C2=O)C(O)C(O)C(C)(O)C1` (centres undefined) registered a concentration for half-maximal inhibition (IC50) of 7.5 µM.
The compound `Cc1cnc2c(c1)C(=O)C1C=CC=NC1C2=O` (centres undefined) gave an IC50 in assay [3] (Homo sapiens, A549, 48 h) of 2.23 µM.
Same read-out and setting: with `CC1=CC2C(=O)c3nccc(I)c3C(=O)C2N=C1` (centres undefined) the figure was 0.14 µM.
The compound `COc1cc(C(=O)/C=C/c2cc3c([nH]c4ccccc43)c(-c3ccc(F)c(F)c3)n2)cc(OC)c1OC` came in with an IC50 in assay [2] of 8.7 µM. This lies in the single-digit micromolar range.
In the case of `C[C@]1(O)Cc2c(O)c3c(c(O)c2[C@H](O)[C@H]1O)C(=O)C=C(N1CCC(c2ccccc2)CC1)C3=O`, the IC50 in assay [2] is 4.81 µM.
The same measure, in the same setting: with `CCCCCCNC1=CC(=O)c2c(O)c3c(c(O)c2C1=O)C[C@](C)(O)[C@H](O)[C@H]3O` the figure was 4.87 µM.
Regarding `C#CCOc1cc(O)c2c(c1)C(=O)c1cc(C)cc(O)c1C2=O`, inhibition in assay [2] was half-maximal at 20 µM (IC50).
The same measure, in the same setting: with `CCCCNC1=CC(=O)c2c(O)c3c(c(O)c2C1=O)C[C@](C)(O)[C@H](O)[C@H]3O` the figure was 1.08 µM.
Regarding `Cc1cc(O)c2c(c1)C(=O)c1cc(O)c(CN3CCN(c4ccc(F)cc4)CC3)c(O)c1C2=O`, the IC50 in assay [1] worked out at 10.4 µM. In other words, the double-digit micromolar range.
`O=C1c2c(O)ccnc2C(=O)C2C(c3ccccc3)=CC=NC12` (centres undefined) displayed an IC50 in assay [3] (Homo sapiens, A549, 48 h) of 14.5 µM.
Regarding `CC1=CC2C(=O)c3nccc(N(C)C)c3C(=O)C2N=C1` (centres undefined) [listing 2 of 2 here], the IC50 in assay [3] (a549) worked out at 3.12 µM. This counts as single-digit micromolar.
As to `CCN(CC)CC1CCc2c(n(C)c3ccccc23)C1=O` (centres undefined), half-maximal inhibition in assay [3] (Homo sapiens, A549, 48 h) (IC50) was put at 0.07 µM. This counts as double-digit nanomolar.
In assay [2], `COC1=C(C)C(O)=CC2C(=O)c3c(ccc(OC)c3OC)C(=O)C12` (centres undefined) came in with a concentration for half-maximal inhibition (IC50) of 10.2 µM.
`CCOP(=O)(OCC)C(C)(NC(=O)c1cc(O)c2c(c1)C(=O)c1cccc(O)c1C2=O)c1ccc(C)cc1` (centres undefined) returned an IC50 in assay [1] of 15.1 µM.
Regarding `CCCNC1=CC(=O)c2c(O)c3c(c(O)c2C1=O)C[C@](C)(O)[C@H](O)[C@H]3O`, the IC50 in assay [2] was 14 µM. That is a double-digit micromolar value.
`C=C[C@@]1(C)C=C2[C@@H](O[C@@H]3O[C@H](C)[C@H](O)[C@H](O)[C@H]3O)C[C@@H]3C(C)(C)[C@H](O[C@@H]4O[C@@H](C)[C@H](O)[C@@H](O)[C@H]4OC(C)=O)CC[C@@]3(C)[C@@H]2CC1` had an IC50 in assay [3] (Homo sapiens, A549, 48 h) of 10.4 µM.
Same read-out and setting: with `CC(C)(O)c1ccc2c(c1)C(=O)C[C@H]1C(C)(C)CCC[C@]21C` the figure was 14 µM; with `Cc1cnc2c(c1)C(=O)C1N=CC=C(/C=C/C#N)C1C2=O` (centres undefined), 7.88 µM.
On the same count and under the same terms, in the case of `Nc1ccc(C(=O)/C=C/c2cc3c([nH]c4ccccc43)c(-c3ccc(C(F)(F)F)cc3)n2)cc1` it was 2.95 µM.
As for `C=C[C@@]1(C)C=C2[C@@H](O[C@@H]3O[C@H](C)[C@H](O)[C@H](O)[C@H]3O)C[C@@H]3C(C)(C)[C@H](O[C@@H]4O[C@@H](C)[C@H](O)[C@@H](O)[C@H]4O[C@H]4O[C@H](C)[C@H](O)[C@H](O)[C@H]4O)CC[C@@]3(C)[C@@H]2CC1`, the IC50 in assay [2] came to 4.7 µM.
In assay [2], `CNC1=CC(=O)c2c(O)c3c(c(O)c2C1=O)C[C@](C)(O)[C@H](O)[C@H]3O` showed an IC50 of 3.58 µM. The IC50 values of the last two compounds are within 1.5-fold of each other.
Same read-out and setting: with `CCCCSC1=C(SCCCC)C(=O)c2c(O)c3c(c(O)c2C1=O)C[C@](C)(O)[C@H](O)[C@H]3O` the figure was 2.45 µM.
For the compound `Cc1cnc2c(c1)C(=O)C1N=CC=CC1C2=O` (centres undefined), the half-inhibitory concentration (IC50) in assay [3] (Homo sapiens, A549, 48 h) stood at 3.72 µM.
Compound `COC(=O)c1ccc2c(=O)c3c(O)cc(CCO)cc3oc2c1O` registered a half-inhibitory concentration (IC50) in assay [2] of 2.7 µM.
Turning to `CC(C)=CCc1c(O)cc2oc3ccccc3c(=O)c2c1O`, the concentration for half-maximal inhibition (IC50) in assay [1] was 9.81 µM.
In assay [2], `C[C@]1(O)Cc2c(O)c3c(c(O)c2[C@H](O)[C@H]1O)C(=O)C(SCCO)=C(SCCO)C3=O` registered an IC50 of 14.4 µM.
Consider `CCn1c2ccccc2c2cc(C3=NCCc4c3[nH]c3ccccc43)ccc21`, for which the midpoint of inhibition in assay [1], the IC50, lay at 2.3 µM. This lies in the single-digit micromolar range.
In the case of `Nc1ccc(C(=O)/C=C/c2cc3c([nH]c4ccccc43)c(-c3ccc(F)c(F)c3)n2)cc1`, 10.5 µM corresponded to half-maximal inhibition in assay [2] (IC50).
With `CC1CCN(CC2CCc3c(n(C)c4ccccc34)C2=O)CC1` (centres undefined), the 50% inhibitory concentration (IC50) in assay [3] (Homo sapiens, A549, 48 h) was 0.71 µM.
`COc1ccc2oc3ccccc3c(=O)c2c1O`: the IC50 in assay [2] was 16.5 µM.
With `CCOP(=O)(OCC)C(C)(NC(=O)c1cc(O)c2c(c1)C(=O)c1cccc(O)c1C2=O)c1ccccc1` (centres undefined), half-maximal inhibition in assay [1] (IC50) was put at 18.2 µM.
In assay [2], `COC(=O)c1cccc2oc3cc(CCO)cc(O)c3c(=O)c12` registered a concentration for half-maximal inhibition (IC50) of 4.6 µM.
`CC1=CC2C(=O)c3nccc(Cl)c3C(=O)C2N=C1` (centres undefined) had an IC50 in assay [3] (Homo sapiens, A549, 48 h) of 13.7 µM.
As for `CN(Cc1ccccc1)CC1CCc2c(n(C)c3ccccc23)C1=O` (centres undefined), in assay [3] (Homo sapiens, A549, 48 h), the IC50 is 14.1 µM. The IC50 values of the last two compounds are within 1.5-fold of each other.
`C[C@]1(O)Cc2c(O)c3c(c(O)c2[C@H](O)[C@H]1O)C(=O)C=C(N1CCCCC1)C3=O` gave an IC50 in assay [2] of 3.14 µM.
The same measure, in the same setting: in the case of `Cc1cc(O)c2c(c1)C(=O)c1cc(OCCN(C)C)cc(O)c1C2=O` it was 4.5 µM; in that of `COc1ccc(CNC2=CC(=O)c3c(O)c4c(c(O)c3C2=O)C[C@](C)(O)[C@H](O)[C@H]4O)cc1`, 9.17 µM.
Regarding `COc1ccnc2c1C(=O)C1N=CC=C(c3ccccc3)C1C2=O` (centres undefined), the IC50 in assay [3] (Homo sapiens, A549, 48 h) stood at 10.6 µM.
Compound `CCOP(=O)(OCC)C(C)(CCc1ccccc1)NC(=O)c1cc(O)c2c(c1)C(=O)c1cccc(O)c1C2=O` (centres undefined) returned a half-maximal inhibitory concentration (IC50) in assay [1] of 8.82 µM.
Turning to `O=C(/C=C/c1cc2c([nH]c3ccccc32)c(-c2cccc(Cl)c2)n1)c1ccco1`, half-maximal inhibition in assay [3] (Homo sapiens, A549, 48 h) (IC50) was put at 18.6 µM. This lies in the double-digit micromolar range.
In assay [1], `O=c1c2ccc(O)cc2oc2cccc(O)c12` displayed a concentration for half-maximal inhibition (IC50) of 18.4 µM. This counts as double-digit micromolar.
In assay [2], `CC(CO)c1cc2c(c(O)c1O)C[C@@]1(O)CCCC(C)(C)[C@@H]1CC2` (some centres undefined) showed a concentration for half-maximal inhibition (IC50) of 16 µM.
The compound `CC(CO)c1cc(O)c2c(c1)[C@@H](O)C[C@H]1C(C)(C)CCC[C@]1(O)C2` (some centres undefined) came in with a half-inhibitory concentration (IC50) in assay [2] of 15.8 µM.
On the same count and under the same terms, with `CC(CO)c1cc(O)c2c(c1)CC[C@H]1C(C)(C)CCC[C@]1(O)C2` (some centres undefined) the figure was 10.8 µM.
In the case of `O=C1c2c(O)ccc(O)c2C(=O)c2c(NCCNCCO)ccc(NCCNCCO)c21` [MITOXANTRONE], in assay [3] (Homo sapiens, A549, 48 h), the IC50 amounted to 7.25 µM.

The values are drawn from ChEMBL document CHEMBL4316584, “All that glitters is not gold: Panning cytotoxic natural products and derivatives with a fused tricyclic backbone by the estimation of their leadlikeness for cancer treatment” (Eur J Med Chem, 2019).
